In PMC5556071, “ATR inhibition facilitates targeting of leukemia dependence on convergent nucleotide biosynthetic pathways” (Nature Communications, 2017):
Where “and” joins values, the source holds several entries; their conditions need not be identical. Equal entries are not always repeated.

Test system: CEM cells
Assay: Non-targeted LC-MS metabolite profiling: percent [13C6]glucose labeling and relative metabolite levels
Format: cell-based, human
Details: CEM cells, 12 h following release from G1 arrest, replicates #1-#6
Text: To further investigate the functions of dCK and ATR at the G1/S transition in CEM cells, a non-targeted liquid chromatography mass spectrometry (LC-MS) assay was used to determine the utilization of labeled [^13C6]glucose and [^13C9,^15N3]deoxycytidine, the main substrates for de novo and salvage nucleotide biosynthesis, respectively. Of the 166 metabolites identified in CEM cells treated with VE-822 and/or dCKi, 105 metabolites found in all four treatment groups contained glucose-derived ^13C atoms. […] These metabolites included intermediates such as rUTP, rCTP and rCDP in the de novo dCTP biosynthesis (Fig. 1d). […] However, several deoxyribonucleotides, including dCTP, were below the limit of detection of the non-targeted LC-MS approach, raising the concern that the sensitivity of this assay is not sufficient to measure the contribution of the salvage pathway or the ratio of de novo and salvage biosynthesis to these pools. To address this problem, a newly developed targeted MS assay was developed (Fig. 1e and Supplementary Fig. 3). In this assay, samples containing either extracted dNTPs or hydrolyzed DNA from labeled cells are separated by LC for detection by a triple quadrupole mass spectrometer using multiple reaction monitoring (LC-MS/MS-MRM). The first (Q1) and third (Q3) quadrupoles function as mass filters, while the second (Q2) quadrupole serves as a collision chamber (Fig. 1e). For instance, to profile the biosynthetic composition of deoxycytidine (dC) derived from hydrolyzed DNA or dCTP, an intact, protonated dC ion is selected in Q1, followed by fragmentation of the glycosidic bond, which releases protonated cytosine in Q2, that is filtered in Q3 and detected to generate an ion chromatogram. The peak areas for the ion chromatograms of salvage [^13C9,^15N3]dC (red trace), de novo [^13C5]dC (black trace, from [^13C6]glucose) and unlabeled dC (gray trace) (Fig. 1e) are used to determine the relative contributions of the de novo and salvage routes both to dCTP pools and to DNA-incorporated dCTP.
Cells were transferred into RPMI-1640 without glucose and supplemented with 10% dialyzed FBS (Gibco) containing the following labeled substrates: precursors for de novo [U-^13C6]glucose (Sigma-Aldrich, 389374) at 11 mM; precursors for purine salvage [U-^13C10,^15N5]dA (Cambridge Isotopes, CIL 3896), [^15N5]dA (Cambridge Isotopes, NLM-3895) and [^15N5]dG (Cambridge Isotopes, NLM-3899) at 5 µM or as indicated; and precursors for pyrimidine salvage: [U-^13C9,^15N3]dC (Silantes, 124603602) and [U-^13C10,^15N2]dT (Cambridge Isotopes, CNLM-3902) at 5 µM and [^15N2]orotate (Cambridge Isotopes, NLM-1048) at indicated concentrations. The cells were incubated for 12 h or as indicated before sample collection and processing. […]
Non-targeted LC-MS metabolic assays. 1 x 10^6 cells were washed with ice-cold 150 mM ammonium acetate twice before adding 1 mL of ice-cold 80% methanol with 10 nM norvaline as an internal standard. After vigorous vortexing, samples were centrifuged at maximum speed, the aqueous layer was transferred to a glass vial and the metabolites were dried under vacuum. Metabolites were resuspended in 50 μL 70% acetonitrile (ACN) and 5 μL of this solution used for the mass spectrometer-based analysis. The analysis was performed on a Q Exactive (Thermo Scientific) in polarity-switching mode with positive voltage 4.0 kV and negative voltage 4.0 kV. The mass spectrometer was coupled to an UltiMate 3000RSLC (Thermo Scientific) UHPLC system. Mobile phase A was 5 mM ammonium acetate (NH4AcO), pH 9.9, B was acetonitrile and the separation achieved on a Luna […] NH2 100 A column (150 × 2.0 mm, Phenomenex). The flow was 200 μL/min, and the gradient ran from 15% A to 95% A in 18 min, followed by an isocratic step for 9 min and re-equilibration for 7 min. Metabolites were detected and quantified as area under the curve based on retention time and accurate mass (≤ 3 p.p.m.) using the TraceFinder 3.1 (Thermo Scientific). Relative amounts of […]

[1] = metabolite Asn (C00152), listed as D
[2] = metabolite Asp (C00049), listed as D
[3] = metabolite Carnitine (C00318), listed as D
[4] = metabolite G3P (KEGG C00118), listed as D
[5] = metabolite G6P-F6P (KEGG C00668), listed as D
[6] = metabolite GABA (KEGG C00334), listed as D
[7] = metabolite GDP (KEGG C00035), listed as D
[8] = metabolite GMP (KEGG C00144), listed as D
[9] = metabolite GSH (KEGG C00051), listed as D
[10] = metabolite GSSG (KEGG C00127), listed as D
[11] = metabolite GTP (KEGG C00044), listed as D
[12] = metabolite Glc (KEGG C00031), listed as D
[13] = metabolite GlcA (KEGG C00257), listed as D
[14] = metabolite GlcN-6P (KEGG C00352), listed as D
[15] = metabolite GlcNAc-6P (KEGG C00357), listed as D
[16] = metabolite Gln (KEGG C00064), listed as D
[17] = metabolite Glu (KEGG C00025), listed as D
[18] = metabolite GlucA (KEGG C00191), listed as D
[19] = metabolite Gly (KEGG C00037), listed as D
[20] = metabolite Glycerol (KEGG C00116), listed as D
[21] = metabolite Glycerol-2-P (KEGG C02979), listed as D
[22] = metabolite Glycerol-3-P (KEGG C00093), listed as D
[23] = metabolite His (KEGG C00135), listed as D
[24] = metabolite Homocysteine (KEGG C00155), listed as D
[25] = metabolite Hypoxanthine (KEGG C00262), listed as D
[26] = metabolite IMP (KEGG C00130), listed as D
[27] = metabolite Inosine (KEGG C00294), listed as D
[28] = metabolite a-KG (C00026), listed as D

SMILES: COc1ccc(-c2nc([C@@H](C)Sc3nc(N)cc(N)n3)c(C)s2)cc1OCCNS(C)(=O)=O [dCKi]
- Relative level, Arg-Succ (metabolite Arg-Succ (C03406), listed as D): 1.1 and 1.2 and 1.4 and 0.428 and 0.458 and 0.6
- Glucose labeling, Asn [1]: 0.000993% and 2.77e-6% and 0.00524% and 0.00322% and 0.000183% and 2.2e-6%
- Relative level, Asn [1]: 1.1 and 1.3 (2×) and 0.8 and 0.7 and 0.85
- Glucose labeling, Asp [2]: 24.08% and 25.99% and 25.39% and 25.08% and 25.80% and 25.92%
- Relative level, Asp [2]: 0.9 (3×) and 1.1 and 0.5 and 0.6
- Glucose labeling, C (metabolite C (D07769), listed as D): 0.44% (4×) and 0.15% and 0.31%
- Relative level, C (metabolite C, listed as D): 1.0 and 1.2 and 1.3 (2×) and 1.4 and 1.1
- Glucose labeling, Carnitine [3]: 0.0041% and 0.00586% and 0.00566% and 0.00463% and 0.00467% and 0.00476%
- Relative level, Carnitine [3]: 1.0 and 1.1 (2×) and 0.9 (2×) and 0.843
- Glucose labeling of G3P [4]: 100.00% (3×) and 0.0369% (3×)
- Relative level of G3P [4]: 0.316 and 1.2 and 0.237 and 0.232
- Glucose labeling of G6P-F6P [5]: 57.18% and 69.30% and 72.35% and 21.95% and 56.24% and 64.94%
- Relative level of G6P-F6P [5]: 0.6 and 0.7 and 1.0 and 0.163 and 0.339 and 0.4
- Glucose labeling of GABA [6]: 0.0266% and 0.0568% and 0.0445% and 0.0322% and 0.0737% (2×)
- Relative level of GABA [6]: 1.2 and 1.4 and 1.5 and 0.6 and 0.5 and 0.466
- Glucose labeling of GDP [7]: 100.00% (2×) and 89.71% and 79.16% and 66.81% and 77.84%
- Relative level of GDP [7]: 0.278 and 0.74 and 2.1 and 0.0943 and 0.533
- Glucose labeling of GMP [8]: 82.17% and 84.38% and 86.57% and 100.00% and 55.56% and 83.28%
- Relative level of GMP [8]: 1.0 (2×) and 2.5 and 0.177 and 0.7
- Glucose labeling of GSH [9]: 24.91% and 25.95% and 26.01% and 22.52% and 20.58% and 22.91%
- Relative level of GSH [9]: 0.8 and 1.1 and 1.4 and 0.2 and 0.245 and 0.4
- Glucose labeling of GSSG [10]: 44.73% and 47.85% and 45.35% and 40.72% and 38.47% and 41.79%
- Relative level of GSSG [10]: 1.0 (2×) and 1.3 and 1.5 and 0.364 and 0.7
- Glucose labeling of GTP [11]: 88.53% and 93.02% and 84.10% and 100.00% and 95.85% and 82.17%
- Relative level of GTP [11]: 0.137 and 0.6 and 1.3 and 0.0117 and 0.173 and 0.5
- Glucose labeling of Glc [12]: 48.02% and 85.76% and 96.57% and 84.10% and 87.56% and 88.93%
- Relative level of Glc [12]: 0.632 and 1.4 and 6.6 and 1.5 and 2.2 and 2.0
- Glucose labeling of GlcA [13]: 38.48% and 42.08% and 42.11% and 29.34% and 32.69% and 34.11%
- Relative level of GlcA [13]: 1.0 (2×) and 1.4 and 0.4 and 0.5 and 0.7
- Glucose labeling of GlcN (metabolite GlcN (KEGG C00329)): 0.18%
- Relative level of GlcN (metabolite GlcN (KEGG C00329), listed as D): 1.4 and 0.948 and 0.9 (2×) and 1.0 and 0.8
- Glucose labeling of GlcN-6P [14]: 6.04% and 8.63% and 7.74% and 8.56% and 9.86% and 9.69%
- Relative level of GlcN-6P [14]: 0.8 and 0.847 and 1.1 and 0.743 and 0.7 and 1.0
- Glucose labeling of GlcNAc-6P [15]: 12.90% and 10.87% and 25.06% and 34.14% and 41.68% and 27.99%
- Relative level of GlcNAc-6P [15]: 0.636 and 0.8 and 1.2 and 0.212 and 0.6 (2×)
- Glucose labeling of Gln [16]: 0.24% and 0.28% (4×) and 0.29%
- Relative level of Gln [16]: 1.0 (2×) and 1.2 and 1.3 and 0.9 (2×)
- Glucose labeling of Glu [17]: 30.50% and 31.50% and 31.06% and 32.25% and 32.69% and 32.43%
- Relative level of Glu [17]: 1.0 and 1.1 and 1.2 and 0.6 (2×) and 0.751
- Glucose labeling of GlucA [18]: 0.47% and 1.38% and 1.95% and 0.76% and 1.61% and 0.18%
- Relative level of GlucA [18]: 1.5 and 0.9 and 1.3 and 0.635 and 0.563 and 0.7
- Glucose labeling of Gly [19]: 5.78% and 6.19% and 5.38% and 3.11% and 3.32% and 3.83%
- Relative level of Gly [19]: 1.1 and 1.3 and 1.2 (2×) and 0.9 and 0.854
- Glucose labeling of Glycerol [20]: 0.0257% and 0.0369% (2×) and 0.03% and 0.00165% and 0.0279%
- Relative level of Glycerol [20]: 0.8 (2×) and 0.7 and 1.5 and 2.6 and 2.4
- Glucose labeling of Glycerol-2-P [21]: 12.49% and 5.31% and 20.27% and 20.32% and 0.0369% and 11.49%
- Relative level of Glycerol-2-P [21]: 0.6 and 0.5 and 1.9 and 0.0423 and 0.16 and 0.346
- Glucose labeling of Glycerol-3-P [22]: 15.24% and 16.29% and 15.98% and 18.03% and 18.16% and 17.98%
- Relative level of Glycerol-3-P [22]: 1.0 and 0.9 (2×) and 0.7 (2×) and 0.656
- Glucose labeling of HS2O3 (metabolite HS2O3 (KEGG C00320)): 100.00%
- Relative level of HS2O3 (metabolite HS2O3 (KEGG C00320), listed as D): 0.9 (2×) and 1.0 and 0.8 and 1.1 (2×)
- Glucose labeling of His [23]: 0.00% (5×) and 1.11e-14%
- Relative level of His [23]: 1.2 and 1.3 and 1.5 and 0.76 and 0.6 and 0.7
- Glucose labeling of Homocysteine [24]: 0.022% and 0.0737% and 0.000309% and 0.01% and 0.000455% and 0.23%
- Relative level of Homocysteine [24]: 2.7 and 0.5 and 1.5 (2×) and 3.4 and 0.855
- Glucose labeling of Hypoxanthine [25]: 0.00941% and 0.12% (4×) and 0.06%
- Relative level of Hypoxanthine [25]: 2.0 and 0.2 and 1.0 and 1.3 (2×) and 2.9
- Glucose labeling of IMP [26]: 93.29% and 98.06% and 95.55% and 100.00% and 94.31% and 97.32%
- Relative level of IMP [26]: 0.7 and 0.8 and 1.6 and 0.111 and 0.323 and 0.6
- Glucose labeling of Inosine [27]: 0.55% (4×) and 100.00% and 49.07%
- Relative level of Inosine [27]: 0.5 and 0.547 and 0.3 and 0.568 and 0.6
- Glucose labeling of Inositol (metabolite Inositol (KEGG C00137)): 0.00%
- Relative level of Inositol (metabolite Inositol (KEGG C00137), listed as D): 1.0 (2×) and 1.6 (2×) and 1.1 (2×)
- Glucose labeling, a-KG [28]: 4.27% and 11.78% and 16.08% and 0.12% (2×) and 4.73%
- Relative level, a-KG [28]: 0.7 and 1.1 and 2.3 and 0.0795 and 0.14 and 0.259
